Test [1] deals with c-Kit(V654A) (Homo sapiens, UniProt P10721, V654A). Kind of test: c-Kit(V654A) assay. It is filed as biochemical. In short, it runs like this:
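Radiometric filter-binding read-out: after 3% phosphoric acid stop, peptide-incorporated 33P on filtermat scintillation-counted. Enzyme: human c-Kit V654A, residues 544–end, N-terminal GST fusion.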

The target of test [2] is mutant cKIT (560-576 and V654A) in GIST430/654 cell line (Homo sapiens (Human), UniProt P10721, DEL560-576/V654A). Kind of test: Cellular testing of cKIT mutant inhibitors: phospho-Y307-cKIT Luminex assay in GIST430/654 cells. To be noted: read-out: GIST 430/654 IC50. It is filed as cell-based. In short, it runs like this:
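Autophosphorylation of mutant cKIT at Y307 was quantified by a Luminex bead sandwich assay (total-cKIT capture, phosphospecific detection) after 45 min compound exposure in GIST430/654 cells, cultured in medium containing 100 nM imatinib. Signals were normalised to solvent (0.3% DMSO) controls and dose-response curves fitted for IC50.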

Where [3] appears, read: Table 1, cKIT autophosphorylation, compounds 45 min.
Where [4] appears, read: Table 2, corresponding triazole derivatives.
The mark [5] stands for this setting: Table 2, isoxazole derivatives presently described.

Where two headings read alike, the source gives them in different places.

mutant cKIT (560-576 and V654A) in GIST430/654 cell line, sequence (P10721 other isoform, or with tags, fused parts or gaps V654A/del 1-25/del 560-576 limits assumed): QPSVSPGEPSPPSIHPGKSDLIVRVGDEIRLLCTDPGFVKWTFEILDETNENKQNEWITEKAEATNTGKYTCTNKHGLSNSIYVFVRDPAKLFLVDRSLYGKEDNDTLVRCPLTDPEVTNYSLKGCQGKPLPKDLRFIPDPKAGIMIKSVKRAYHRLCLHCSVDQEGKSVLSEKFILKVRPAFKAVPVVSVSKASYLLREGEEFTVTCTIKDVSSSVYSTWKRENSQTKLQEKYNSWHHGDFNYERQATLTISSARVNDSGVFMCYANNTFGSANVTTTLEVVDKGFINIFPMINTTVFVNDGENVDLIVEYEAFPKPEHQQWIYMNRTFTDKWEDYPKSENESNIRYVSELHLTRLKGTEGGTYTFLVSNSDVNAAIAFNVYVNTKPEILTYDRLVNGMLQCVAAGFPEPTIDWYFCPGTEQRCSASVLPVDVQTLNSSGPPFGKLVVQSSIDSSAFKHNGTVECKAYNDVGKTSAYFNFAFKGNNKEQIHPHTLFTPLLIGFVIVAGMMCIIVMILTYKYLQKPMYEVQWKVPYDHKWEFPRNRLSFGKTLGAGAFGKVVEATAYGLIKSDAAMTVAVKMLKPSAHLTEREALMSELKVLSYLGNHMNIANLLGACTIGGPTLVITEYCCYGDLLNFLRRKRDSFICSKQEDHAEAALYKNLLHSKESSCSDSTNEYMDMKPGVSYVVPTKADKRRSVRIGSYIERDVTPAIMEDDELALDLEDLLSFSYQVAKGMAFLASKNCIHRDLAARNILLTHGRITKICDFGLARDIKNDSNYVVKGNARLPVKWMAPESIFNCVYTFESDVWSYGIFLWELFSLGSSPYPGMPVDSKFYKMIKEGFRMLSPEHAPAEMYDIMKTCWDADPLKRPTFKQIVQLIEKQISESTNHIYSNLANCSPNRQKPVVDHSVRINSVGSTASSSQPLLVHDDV

In the case of `COCCOc1cc2[nH]nc(-c3cc(-c4ccc(C(=O)N5CC(N6CCCCC6)C5)cc4)no3)c2cc1F` [A177, 5-fluoro-6-(2-methoxyethoxy)-3-(3-{4-[3-(piperidin-1-yl)azetidine-1-carbonyl]phenyl}-1,2-oxazol-5-yl)-1H-indazole], the IC50 in test [1] (Table 1, 200 μM ATP) was found to be 1 nM; in test [2] (setting [3]) it was 65 nM.
On to `COCCOc1ccc2c(-c3cn(-c4ccc(C(=O)N5CCN(C)C[C@@H]5C)cc4)nn3)n[nH]c2c1` [reference compound], for which the IC50 in test [1] (setting [4]) was 6.1 nM; in test [2] (setting [4]) it was 320 nM.
On to `COCCOc1cc2[nH]nc(-c3cc(-c4ccc(OCCN5CCS(=O)(=O)CC5)cc4)no3)c2cc1F` [A132, 4-[2-(4-{5-[5-fluoro-6-(2-methoxyethoxy)-1H-indazol-3-yl]-1,2-oxazol-3-yl}phenoxy)ethyl]-1lambda6-thiomorpholine-1,1-dione], for which the IC50 turned out to be 1.6 nM in test [1] (Table 1, 200 μM ATP) and 93 nM in test [2] (setting [3]).
On the same counts, the results for `COCCOc1cc2[nH]nc(-c3cc(-c4ccc(C(=O)N5CCCOCC5)cc4)no3)c2cc1F` [A44, 5-fluoro-6-(2-methoxyethoxy)-3-{3-[4-(1,4-oxazepane-4-carbonyl)phenyl]-1,2-oxazol-5-yl}-1H-indazole] are 1.1 nM and 41 nM.
On the same counts, the results for `COCCOc1cc2[nH]nc(-c3cc(-c4ccc(C(=O)N5CCC6(CCOC6)C5)cc4)no3)c2cc1F` (stereo not drawn) [A157, 7-(4-{5-[5-fluoro-6-(2-methoxyethoxy)-1H-indazol-3-yl]-1,2-oxazol-3-yl}benzoyl)-2-oxa-7-azaspiro[4.4]nonane] are 0.44 nM and 23 nM.
On the same counts, the results for `COCCOc1cc2[nH]nc(-c3cc(-c4ccc(C(=O)N5C[C@@H]6C[C@H]5CO6)cc4)no3)c2cc1F` [A162, 5-fluoro-6-(2-methoxyethoxy)-3-(3-{4-[(1S,4S)-2-oxa-5-azabicyclo[2.2.1]heptane-5-carbonyl]phenyl}-1,2-oxazol-5-yl)-1H-indazole] are 0.65 nM and 44 nM.
As for `COCCOc1cc2[nH]nc(-c3cc(-c4ccc(N5CC(N6CCOCC6)C5)nc4)no3)c2cc1F` [A145, 5-fluoro-6-(2-methoxyethoxy)-3-(3-{6-[3-(morpholin-4-yl)azetidin-1-yl]pyridin-3-yl}-1,2-oxazol-5-yl)-1H-indazole], the IC50 in test [1] (Table 1, 200 μM ATP) stood at 4.8 nM; in test [2] (setting [3]) it was 1100 nM.
On the same counts, the results for `COCCOc1cc2[nH]nc(-c3cc(-c4ccc(C(=O)NC5CN(C)C5)cc4)no3)c2cc1F` [A73, 4-{5-[5-fluoro-6-(2-methoxyethoxy)-1H-indazol-3-yl]-1,2-oxazol-3-yl}-N-(1-methylazetidin-3-yl)benzamide] are 4 nM and 430 nM.
Consider `COCCOc1cc2[nH]nc(-c3cc(-c4ccc(N5CC[S+]([O-])CC5)cc4)no3)c2cc1F` [A127, 4-(4-{5-[5-fluoro-6-(2-methoxyethoxy)-1H-indazol-3-yl]-1,2-oxazol-3-yl}phenyl)-1lambda4-thiomorpholin-1-one], for which the IC50 in test [1] (Table 1, 200 μM ATP) was found to be 0.37 nM; in test [2] (setting [3]) it was 24 nM.
`COCCOc1cc2[nH]nc(-c3cc(-c4ccc(C(=O)N5CCOC[C@H]5C)cc4)no3)c2cc1F` [A114, 5-fluoro-6-(2-methoxyethoxy)-3-(3-{4-[(3R)-3-methylmorpholine-4-carbonyl]phenyl}-1,2-oxazol-5-yl)-1H-indazole]: the IC50 in test [1] (Table 1, 200 μM ATP) was found to be 0.91 nM; in test [2] (setting [3]), 56 nM.
On the same counts, the results for `COCCOc1cc2[nH]nc(-c3cc(-c4ccc(NC(C)=O)cc4)no3)c2cc1Cl` [A17, N-(4-{5-[5-chloro-6-(2-methoxyethoxy)-1H-indazol-3-yl]-1,2-oxazol-3-yl}phenyl)acetamide] are 5.3 nM and 130 nM.
On the same counts, the results for `COCCOc1cc2[nH]nc(-c3cc(-c4ccc(C(=O)N5CCN(C6COC6)CC5)c(F)c4)no3)c2cc1F` [A196, (2-fluoro-4-{5-[5-fluoro-6-(2-methoxy-ethoxy)-1H-indazol-3-yl]-isoxazol-3-yl}-phenyl)-(4-oxetan-3-yl-piperazin-1-yl)-methanone] are 3.8 nM and 48 nM.
Turning to `COCCOc1cc2[nH]nc(-c3cc(-c4ccc(C(=O)N5CC(N6CCN(C)CC6)C5)cc4)no3)c2cc1F` [A102, 5-fluoro-6-(2-methoxyethoxy)-3-(3-{4-[3-(4-methylpiperazin-1-yl)azetidine-1-carbonyl]phenyl}-1,2-oxazol-5-yl)-1H-indazole], the IC50 was 1.3 nM in test [1] (Table 1, 200 μM ATP) and 160 nM in test [2] (setting [3]).
On the same counts, the results for `COCCOc1cc2[nH]nc(-c3cc(-c4ccc(C(=O)N5CCN(C)CC5CO)cc4)no3)c2cc1F` (stereo not drawn) [A54, [1-(4-{5-[5-fluoro-6-(2-methoxyethoxy)-1H-indazol-3-yl]-1,2-oxazol-3-yl}benzoyl)-4-methylpiperazin-2-yl]methanol] are 0.73 nM and 130 nM.
On the same counts, the results for `COCCOc1cc2[nH]nc(-c3cc(-c4ccc(C(=O)N5Cc6cncnc6C5)cc4)no3)c2cc1F` [A207, 5-fluoro-6-(2-methoxyethoxy)-3-[3-(4-{5H,6H,7H-pyrrolo[3,4-d]pyrimidine-6-carbonyl}phenyl)-1,2-oxazol-5-yl]-1H-indazole] are 1 nM and 73 nM.
On the same counts, the results for `COCCOc1cc2[nH]nc(-c3cc(-c4ccc(C(=O)N5C6COCC5C6)cc4)no3)c2cc1F` [A182, 5-fluoro-6-(2-methoxyethoxy)-3-[3-(4-{3-oxa-6-azabicyclo[3.1.1]heptane-6-carbonyl}phenyl)-1,2-oxazol-5-yl]-1H-indazole] are 0.94 nM and 38 nM.
Take `COCCOc1cc2[nH]nc(-c3cc(-c4ccc(C(=O)N5CC(c6nc(C)no6)C5)cc4)no3)c2cc1F` [A166, 5-fluoro-6-(2-methoxyethoxy)-3-(3-{4-[3-(3-methyl-1,2,4-oxadiazol-5-yl)azetidine-1-carbonyl]phenyl}-1,2-oxazol-5-yl)-1H-indazole]: the IC50 is 0.96 nM in test [1] (Table 1, 200 μM ATP) and 87 nM in test [2] (setting [3]).
On the same counts, the results for `COCCOc1cc2[nH]nc(-c3cc(-c4ccc(C(=O)N5CC(N6CCS(=O)(=O)CC6)C5)cc4)no3)c2cc1F` [A57, 4-[1-(4-{5-[5-fluoro-6-(2-methoxyethoxy)-1H-indazol-3-yl]-1,2-oxazol-3-yl}benzoyl)azetidin-3-yl]-1lambda6-thiomorpholine-1,1-dione] are 1.9 nM and 180 nM.
`COCCOc1cc2[nH]nc(-c3cc(-c4ccc(C(=O)N5CC(c6ccncc6)C5)cc4)no3)c2cc1F` [A120, 5-fluoro-6-(2-methoxyethoxy)-3-(3-{4-[3-(pyridin-4-yl)azetidine-1-carbonyl]phenyl}-1,2-oxazol-5-yl)-1H-indazole]: the IC50 came out at 0.64 nM in test [1] (Table 1, 200 μM ATP) and 24 nM in test [2] (setting [3]).
On the same counts, the results for `COCCOc1cc2[nH]nc(-c3cc(-c4ccc(C(=O)N5CCC[C@H]5CO)nc4)no3)c2cc1F` [A63, (5-{5-[5-fluoro-6-(2-methoxy-ethoxy)-1H-indazol-3-yl]-isoxazol-3-yl}-pyridin-2-yl)-((S)-2-hydroxymethyl-pyrrolidin-1-yl)-methanone] are 5.7 nM and 290 nM.
On the same counts, the results for `COCCOc1cc2[nH]nc(-c3cc(-c4ccc(C(=O)N5CCOC[C@H]5CO)cc4)no3)c2cc1F` [A105, [(3R)-4-(4-{5-[5-fluoro-6-(2-methoxyethoxy)-1H-indazol-3-yl]-1,2-oxazol-3-yl}benzoyl)morpholin-3-yl]methanol] are 1.2 nM and 140 nM.
On the same counts, the results for `COCCOc1cc2[nH]nc(-c3cc(-c4ccc(C(=O)N5CC6(CCOCC6)C5)cc4)no3)c2cc1F` [A165, 2-(4-{5-[5-fluoro-6-(2-methoxyethoxy)-1H-indazol-3-yl]-1,2-oxazol-3-yl}benzoyl)-7-oxa-2-azaspiro[3.5]nonane] are 0.53 nM and 27 nM.
For the compound `COCCOc1cc2[nH]nc(-c3cc(-c4ccc(N5CCS(=O)(=O)CC5)nc4)no3)c2cc1F` [A131, 4-(5-{5-[5-fluoro-6-(2-methoxyethoxy)-1H-indazol-3-yl]-1,2-oxazol-3-yl}pyridin-2-yl)-1lambda6-thiomorpholine-1,1-dione], the IC50 is 3 nM in test [1] (Table 1, 200 μM ATP) and 65 nM in test [2] (setting [3]).
On the same counts, the results for `COCCOc1cc2[nH]nc(-c3cc(-c4ccc(C(=O)N5CC(N6CCCC6)C5)cc4)no3)c2cc1F` [A178, 5-fluoro-6-(2-methoxyethoxy)-3-(3-{4-[3-(pyrrolidin-1-yl)azetidine-1-carbonyl]phenyl}-1,2-oxazol-5-yl)-1H-indazole] are 1.1 nM and 62 nM.
Regarding `COCCOc1cc2[nH]nc(-c3cc(-c4ccc(C(=O)N5CCS(=N)(=O)CC5)cc4)no3)c2cc1F` [A80, 4-(4-{5-[5-fluoro-6-(2-methoxyethoxy)-1H-indazol-3-yl]-1,2-oxazol-3-yl}benzoyl)-1-imino-1lambda6-thiomorpholin-1-one], the IC50 turned out to be 0.99 nM in test [1] (Table 1, 200 μM ATP) and 460 nM in test [2] (setting [3]).
Take `COCCOc1cc2[nH]nc(-c3cc(-c4ccc(C(=O)N5CCOC[C@H]5C)cc4)no3)c2cc1F` [compound 114]: the IC50 is 0.91 nM in test [1] (setting [5]) and 56 nM in test [2] (setting [5]).
Turning to `COCCOc1cc2[nH]nc(-c3cc(-c4ccc(C(=O)N5CCC[C@H]5CO)cc4)no3)c2cc1F` [A51, [(2S)-1-(4-{5-[5-fluoro-6-(2-methoxyethoxy)-1H-indazol-3-yl]-1,2-oxazol-3-yl}benzoyl)pyrrolidin-2-yl]methanol], the IC50 was 0.88 nM in test [1] (Table 1, 200 μM ATP) and 57 nM in test [2] (setting [3]).
